Experimental data taken from patent US4218443A, “Polyether ionophores as antiobesity and hypotriglyceridemic agents” (Hoffmann-La Roche Inc., priority 1979, dated 1980).
Like-named read-outs stand apart in the source and are kept apart here.

Columns and labels:
human pancreatic lipase = target: T1, human pancreatic lipase (Homo sapiens, UniProt P16233); experiment: In vitro titrimetric (Radiometer pH-stat) pancreatic lipase assay, Dixon plots; type: biochemical; details: in vitro Radiometer assay, read-out: Inhibition constants for bromolasalocid inhibition of human pancreatic lipase
T1 construct: Human pancreatic juice was obtained from a patient with acute pancreatitis; from tissue; host or cells: human pancreatic juice from the cannulated duct of a patient with acute pancreatitis; gift of Dr. George Nardi, Massachusetts General Hospital
T1 sequence (P16233 17-465): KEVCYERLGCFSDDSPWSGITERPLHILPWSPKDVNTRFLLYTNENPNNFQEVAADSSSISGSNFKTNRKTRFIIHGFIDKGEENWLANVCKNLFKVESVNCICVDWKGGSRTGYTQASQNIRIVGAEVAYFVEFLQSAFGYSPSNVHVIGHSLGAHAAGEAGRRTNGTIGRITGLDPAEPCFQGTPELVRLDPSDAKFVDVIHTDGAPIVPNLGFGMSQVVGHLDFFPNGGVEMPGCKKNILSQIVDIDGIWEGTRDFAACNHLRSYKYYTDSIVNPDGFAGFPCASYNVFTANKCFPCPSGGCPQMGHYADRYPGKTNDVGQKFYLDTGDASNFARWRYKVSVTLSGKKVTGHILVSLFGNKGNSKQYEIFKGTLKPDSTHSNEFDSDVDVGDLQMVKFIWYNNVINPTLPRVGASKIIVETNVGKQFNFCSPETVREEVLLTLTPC

[1] = system: fatty acid synthesis in isolated hepatocytes; experiment: In vitro fatty acid synthesis in isolated hepatocytes; type: cell-based, Charles River female rat; details: Rattus norvegicus, Hepatocyte, 1 h, pH 7.4; for activity at 500 µM: 0.5 mM; for activity at 1000 µM: 1.0 mM
Description: Hepatocytes were prepared from meal-fed Charles River female rats as described previously, [A. C. Sullivan, J. Triscari, J. G. Hamilton and J. A. Ontko (1977). Hypolipidemic activity of (-)-hydroxycitrate, Lipids, 12: 1-9]. Briefly, rats were anesthetized with Nembutal, livers were perfused in situ and hepatocytes were isolated in Krebs-Henseleit bicarbonate buffer, pH 7.4. Incubations with isolated hepatocytes were performed in triplicate at 37° C. Each incubation flask contained in a total volume of 2.1 ml, 10.5 mg cells (dry weight), 1 ml of Krebs-Henseleit buffer, pH 7.4, radioactive substrate (1 μCi [U-^14 C]alanine, 1 mCi^3 H2 O and 1 μmole alanine) and 0.3% glucose. The appropriate concentration of inhibitor was prepared in dimethylsulfoxide and added to the incubation flask. Dimethylsulfoxide had no effect on fatty acid synthesis. ^3 H2 O was used to determine the total rate of fatty acid synthesis independently of carbon precursors of acetyl CoA. [^14 C]alanine was used as an acetyl CoA precursor. Rates of fatty acid synthesis were determined as described previously, [A. C. Sullivan, J. Triscari, J. G. Hamilton and J. A. Ontko (1977). Hypolipidemic activity of (-)-hydroxycitrate, Lipids, 12: 1-9]. Data are expressed as nmoles ^3 H2 O or [^14 C]alanine converted into fatty acids per mg dry weight cells in 60 minutes.

[2] = system: intestinal absorption of triglycerides (corn oil); experiment: In vivo absorption of triglycerides (corn oil absorption)
pancreatic lipase = target: T2, pancreatic lipase (Rattus norvegicus, UniProt P27657); experiment: In vitro pancreatic lipase screen ([14C]-triolein assay); type: biochemical; details: read-out: Pancreatic Lipase Activity I50
T2 construct: stimulated to release pancreatic proteins by addition of 10^-5 M carbachol; from tissue; host or cells: pancreatic lobules of fasted Charles River female rats; released pancreatic juice, centrifuged
T2 sequence (P27657 17-465): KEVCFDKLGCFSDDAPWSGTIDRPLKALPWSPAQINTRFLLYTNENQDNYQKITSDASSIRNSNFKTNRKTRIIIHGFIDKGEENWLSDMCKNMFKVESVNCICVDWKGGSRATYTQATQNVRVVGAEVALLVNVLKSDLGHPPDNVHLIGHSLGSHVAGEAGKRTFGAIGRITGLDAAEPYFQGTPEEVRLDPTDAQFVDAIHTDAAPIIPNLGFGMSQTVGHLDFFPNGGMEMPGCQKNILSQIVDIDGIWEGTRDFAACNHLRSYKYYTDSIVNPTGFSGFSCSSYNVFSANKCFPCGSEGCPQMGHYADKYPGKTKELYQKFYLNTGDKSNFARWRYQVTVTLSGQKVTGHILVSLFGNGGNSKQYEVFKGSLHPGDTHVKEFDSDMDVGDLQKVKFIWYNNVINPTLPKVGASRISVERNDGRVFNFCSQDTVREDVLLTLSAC
Description: The method for assaying pacreatic lipase in vitro using [^14 C]-triolein was based on the method of Garfinkel and Schotz for lipoprotein lipase, [A. S. Garfinkel and M. C. Schotz (1972). […] Glycerol tri[1-^14 C]oleate (32 mM) was emulsified in 0.2 M Tris-HCl pH 8 containing 0.15 M NaCl, bovine serum albumin (15 mg/ml) and sodium taurocholate (1.4 mM) by sonication for three, one min intervals at 80 watts. Final assay volume was 1.0 ml. The reaction was initiated by the addition of enzyme and was allowed to proceed for 10 min. The reaction was linear for up to 20 min. The liberated free fatty acids were extracted into 0.1 M KOH and quantitated in a liquid scintillation counter using 2,5-bis-2-(5-tertbutylbenzoxazolyl)-tniophene (BBOT) scintillation fluid (Yorktown Research, South Hackensack, N.J.).
Ionophores were added to the above assay as solutions in either 90% ethanol or water, pH 8; 90% ethanol had no effect on the enzyme activity assayed by either method.

[3] = system: meal-fed Charles River rats; experiment: Food consumption and serum parameters in meal-fed rats (in vivo fatty acid synthesis experiments); parameters: species or system Charles River rat; details: 60 mg/kg i.p., sodium salt, mean ± SE
Description: (§1) In the following examples, female rats (Charles River CD strain, 180-200 g) were housed individually in wire bottom cages in a temperature (22°) and light (12 hr light and 12 hr dark) regulated room. They had free access to Purina Rodent Chow and water.
Faster enzymatic procedure for serum triglycerides, Clinical Chemistry, 21: 1983-1985], cholesterol, [C. C. Allain, L. Poon, S. G. Chan, W. Richmond and P. Fu (1974). Enzymatic determination of total serum cholesterol, Clinical Chemistry, 20: 470-475] and glucose, [R. Konig, H. Dauwalder and R. Richterich (1971). Vergleichende Bestimmunogen der Uringlucosekonzentration mit der Polarimetrie und einer enzymatischen Methode (Hexokinase/Glucose-6-Phosphat-Dehydrogenase), Schweiz. Med. Wschr., 101: 860-866] by enzymatic procedures.

[4] = system: hepatic fatty acid synthesis; experiment: In vivo hepatic fatty acid synthesis in meal-fed rats; parameters: species or system Charles River rat; details: 60 mg/kg i.p., sodium salt, mean ± SE
Description: as §1

[5] = read-out: Fatty Acid Synthesis 3H2O
[6] = read-out: Fatty Acid Synthesis [14C]alanine
[7] = Experiment 1, di-(N-methylglucamine), 325 mg/kg p.o.
[8] = Experiment 1, ethanolate, 145 mg/kg p.o.
[9] = Experiment 1, sodium, 140 mg/kg p.o.

CC[C@@H](C(=O)[C@@H](C)[C@@H](O)[C@H](C)CCc1c(Br)cc(C)c(O)c1C(=O)O)[C@H]1O[C@](CC)([C@H]2CC[C@](O)(CC)[C@H](C)O2)C[C@@H]1C [Bromolasalocid, Ethanolate]
Ki (human pancreatic lipase): 100 µM

CC[C@@H](C(=O)[C@@H](C)[C@@H](O)[C@H](C)CCc1c(Br)cc(C)c(O)c1C(=O)O)[C@H]1O[C@](CC)([C@H]2CC[C@](O)(CC)[C@H](C)O2)C[C@@H]1C [Bromolasalocid, Na^+]
Ki (human pancreatic lipase): 50 µM | activity at 500 µM [1, 5]: 14% | activity at 500 µM [1, 6]: 0% | activity at 1000 µM [1, 5]: 22% | activity at 1000 µM [1, 6]: 0%

CC[C@@H](C(=O)[C@@H](C)[C@@H](O)[C@H](C)CCc1c(Br)cc(C)c(O)c1C(=O)O)[C@H]1O[C@](CC)([C@H]2CC[C@](O)(CC)[C@H](C)O2)C[C@@H]1C [Bromolasalocid, di-(N-methylglucamine)]
Ki (human pancreatic lipase): 160 µM

CC[C@@H](C(=O)[C@@H](C)[C@@H](O)[C@H](C)CCc1c(Br)cc(C)c(O)c1C(=O)O)[C@H]1O[C@](CC)([C@H]2CC[C@](O)(CC)[C@H](C)O2)C[C@@H]1C [Bromolasalocid]
Area under curve (corn oil absorption) [2, 7]: 660 | Area under curve, % of control [2, 7]: 60 % of control | Area under curve (corn oil absorption) [2, 8]: 704 | Area under curve, % of control [2, 8]: 64 % of control | Area under curve (corn oil absorption) [2, 9]: 659 | Area under curve, % of control [2, 9]: 60 % of control | IC50 (pancreatic lipase): 600 µM

Monensin
Food Consumption [3]: 16.1 ± 1.4 g | Fatty Acid Synthesis 3H2O converted [4]: 14.8 ± 4.0 μmoles per 1 g liver in 30 min | Fatty Acid Synthesis [14C]alanine converted [4]: 209 ± 64 nmoles per 1 g liver in 30 min
